Measured values from patent publication US9255094B2, “Pyrido[4,3-B]indoles and methods of use” (Medivation Technologies, Inc., priority 2009, dated 2016).

Tests used:
[1] = molecular target: human recombinant histamine H1 receptor (Homo sapiens, UniProt P35367); experiment: Histamine H1 radioligand binding assay ([3H]Pyrilamine); conditions: compound at 1 μM, receptor expressed in CHO cells
Description: To evaluate in radioligand binding assays the activity of compounds of the invention, human recombinant histamine H1 receptor expressed in Chinese hamster ovary (CHO) cells (De Backer, M. D. et al., Biochem. Biophys. Res. Comm. 197(3):1601, 1993) in a modified Tris-HCl buffer (50 mM Tris-HCl, pH 7.4, 2 mM MgCl2, 100 mM NaCl, 250 mM Sucrose) was used. Compounds of the invention were incubated with 1.2 nM [^3H]Pyrilamine for 180 min at 25° C. Non-specific binding was estimated in the presence of 1 μM pyrilamine Receptor proteins were filtered and washed, the filters were then counted to determine [^3H]Pyrilamine specifically bound. Compounds were screened at 1 μM or lower, using 1% DMSO as vehicle. Biochemical assay results are presented as the percent inhibition of specific binding in Table 2.

[2] = molecular target: T1, human recombinant histamine H2 receptor (Homo sapiens, UniProt P25021); experiment: Histamine H2 radioligand binding assay ([125I]Aminopotentidine); conditions: compound at 1 μM; 0.1 nM [125I]Aminopotentidine; receptor expressed in CHO-K1 cells
T1 construct: expressed in transfected cells; host or cells: Chinese hamster ovary (CHO) K1 cells
Description: To evaluate in radioligand binding assays the activity of compounds of the invention, human recombinant histamine H2 receptor expressed in Chinese hamster ovary (CHO) K1 cells (Ruat, M., Proc. Natl. Acad. Sci. USA. 87(5):1658, 1990) in a 50 mM Phosphate buffer, pH 7.4 was used. Compounds of the invention were incubated with 0.1 nM [^125I]Aminopotentidine for 120 min at 25° C. Non-specific binding was estimated in the presence of 3 μM Tiotidine. Receptor proteins were filtered and washed, the filters were then counted to determine [^125I]Aminopotentidine specifically bound. Compounds were screened at 1 μM or lower, using 1% DMSO as vehicle. Biochemical assay results are presented as the percent inhibition of specific binding in Table 2.

[3] = molecular target: human recombinant dopamine D2L receptor (Homo sapiens, UniProt P14416); experiment: Dopamine D2L radioligand binding assay ([3H]Spiperone); conditions: compound at 1 μM, 0.16 nM [3H]Spiperone, CHO cells, read-out: Percent Inhibition of ligand binding, Dopamine (1μM)
Description: (§1) Compounds of the invention were incubated with 0.16 nM [^3H]Spiperone for 120 min at 25° C. Non-specific binding was estimated in the presence of 10 μM Haloperidol. Receptor proteins were filtered and washed, the filters were then counted to determine [^3H]Spiperone specifically bound. Compounds were screened at 1 μM or lower, using 1% DMSO as vehicle. Biochemical assay results are presented as the percent inhibition of specific binding in Table 3.

[4] = molecular target: T2, human recombinant serotonin (5-Hydroxytryptamine) 5-HT2A receptor (Homo sapiens, UniProt P28223); experiment: Serotonin 5-HT2A radioligand binding assay ([3H]Ketanserin); conditions: compound at 1 μM; 0.5 nM [3H]Ketanserin; CHO-K1 cells; read-out: Percent Inhibition of ligand binding, Serotonin (1 μM) 5-HT2A
T2 construct: expressed in transfected cells; host or cells: Chinese hamster ovary (CHO-K1) cells
Description: as §1, with “0.5” for “0.16”, “[^3H]Ketanserin” for “[^3H]Spiperone”, “60” for “120”, “1” for “10”, “Mianserin.” for “Haloperidol.”, “4.” for “3.”

[5] = molecular target: T3, human recombinant serotonin (5-Hydroxytryptamine) 5-HT2C receptor (Homo sapiens, UniProt P28335); experiment: Serotonin 5-HT2C radioligand binding assay ([3H]Mesulergine); conditions: compound at 1 μM; 1 nM [3H]Mesulergine; CHO-K1 cells; read-out: Percent Inhibition of ligand binding, Serotonin (1 μM) 5-HT2C
T3 construct: expressed in transfected cells; host or cells: Chinese hamster ovary (CHO-K1) cells
T3 sequence (P28335 33-458): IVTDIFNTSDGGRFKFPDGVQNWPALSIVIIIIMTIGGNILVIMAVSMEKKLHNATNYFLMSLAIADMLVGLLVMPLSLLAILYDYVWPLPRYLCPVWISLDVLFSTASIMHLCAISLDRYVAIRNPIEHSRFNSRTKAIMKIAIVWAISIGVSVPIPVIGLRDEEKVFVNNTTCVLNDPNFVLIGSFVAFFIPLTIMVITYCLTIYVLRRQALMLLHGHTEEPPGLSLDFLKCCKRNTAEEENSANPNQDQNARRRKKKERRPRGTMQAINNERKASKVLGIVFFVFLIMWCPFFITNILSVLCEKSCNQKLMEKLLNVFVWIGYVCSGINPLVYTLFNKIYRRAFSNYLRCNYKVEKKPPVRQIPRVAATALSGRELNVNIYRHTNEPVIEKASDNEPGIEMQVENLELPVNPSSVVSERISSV
Description: as §1, with “1” for “0.16”, “[^3H]Mesulergine” for “[^3H]Spiperone”, “60” for “120”, “1” for “10”, “Mianserin.” for “Haloperidol.”, “4.” for “3.”

[6] = molecular target: T4, human recombinant serotonin (5-Hydroxytryptamine) 5-HT6 receptor (Homo sapiens, UniProt P50406); experiment: Serotonin 5-HT6 radioligand binding assay ([3H]LSD); conditions: compound at 1 μM, HeLa cells, read-out: Percent Inhibition of ligand binding, Serotonin (1 μM) 5-HT6
T4 construct: expressed in transfected cells; host or cells: human HeLa cells
Description: (§2) Compounds of the invention were incubated with 1.5 nM [3H]Lysergic acid diethylamide (LSD) for 120 min at 37° C. […] Receptor proteins were filtered and washed, the filters were then counted to determine [3H]LSD specifically bound. Compounds were screened at 1 μM or lower, using 1% DMSO as vehicle. Biochemical assay results are presented as the percent inhibition of specific binding in Table 4.

[7] = molecular target: human recombinant serotonin (5-Hydroxytryptamine) 5-HT7 receptor (Homo sapiens, UniProt P34969); experiment: Serotonin 5-HT7 radioligand binding assay ([3H]LSD); conditions: compound at 1 μM; 5.5 nM [3H]LSD; CHO cells; read-out: Percent Inhibition of ligand binding, Serotonin (1 μM) 5-HT7
Description: as §2, with “of” for “of the”, “5.5” for “1.5”, “[^3H] Lysergic” for “[3H]Lysergic”, “2 h” for “120 min”, “25°” for “37°”, “[^3H]LSD” for “[3H]LSD”

Chain of human recombinant histamine H1 receptor (P35367 whole entry): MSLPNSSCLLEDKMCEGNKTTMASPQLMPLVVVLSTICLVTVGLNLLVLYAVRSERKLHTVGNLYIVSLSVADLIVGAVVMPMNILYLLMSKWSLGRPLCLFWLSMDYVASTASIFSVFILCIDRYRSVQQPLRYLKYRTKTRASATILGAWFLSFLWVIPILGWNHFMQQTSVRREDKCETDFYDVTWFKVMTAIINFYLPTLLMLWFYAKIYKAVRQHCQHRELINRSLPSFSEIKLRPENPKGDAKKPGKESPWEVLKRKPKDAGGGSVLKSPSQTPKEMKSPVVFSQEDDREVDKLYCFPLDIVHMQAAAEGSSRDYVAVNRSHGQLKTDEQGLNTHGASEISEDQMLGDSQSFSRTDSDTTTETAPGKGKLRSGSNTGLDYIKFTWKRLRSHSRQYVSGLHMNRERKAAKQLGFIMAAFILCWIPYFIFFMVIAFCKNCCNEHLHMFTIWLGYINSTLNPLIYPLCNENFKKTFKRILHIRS
T4 sequence (P50406 whole entry): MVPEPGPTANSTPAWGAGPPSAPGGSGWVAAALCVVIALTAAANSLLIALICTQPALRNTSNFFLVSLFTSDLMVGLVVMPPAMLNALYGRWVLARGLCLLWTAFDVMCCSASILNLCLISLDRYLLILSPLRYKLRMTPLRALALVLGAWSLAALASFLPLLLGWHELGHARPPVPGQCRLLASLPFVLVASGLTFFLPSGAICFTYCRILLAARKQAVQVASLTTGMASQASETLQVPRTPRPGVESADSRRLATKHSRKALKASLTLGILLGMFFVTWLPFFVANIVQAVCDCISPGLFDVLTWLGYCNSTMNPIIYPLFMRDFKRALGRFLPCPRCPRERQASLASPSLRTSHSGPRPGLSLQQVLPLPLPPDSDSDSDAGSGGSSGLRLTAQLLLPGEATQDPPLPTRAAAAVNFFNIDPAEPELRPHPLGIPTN
T1 sequence (P25021 whole entry): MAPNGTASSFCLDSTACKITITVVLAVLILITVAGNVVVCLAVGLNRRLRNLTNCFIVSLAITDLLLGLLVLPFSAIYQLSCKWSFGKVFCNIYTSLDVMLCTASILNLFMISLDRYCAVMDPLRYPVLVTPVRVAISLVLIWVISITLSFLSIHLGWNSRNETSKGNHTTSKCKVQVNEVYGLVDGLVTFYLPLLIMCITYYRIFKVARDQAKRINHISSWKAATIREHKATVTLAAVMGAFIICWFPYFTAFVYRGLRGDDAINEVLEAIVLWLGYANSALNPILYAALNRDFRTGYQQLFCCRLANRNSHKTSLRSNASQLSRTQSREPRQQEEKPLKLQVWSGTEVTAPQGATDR
Chain of human recombinant serotonin (5-Hydroxytryptamine) 5-HT7 receptor (P34969 whole entry): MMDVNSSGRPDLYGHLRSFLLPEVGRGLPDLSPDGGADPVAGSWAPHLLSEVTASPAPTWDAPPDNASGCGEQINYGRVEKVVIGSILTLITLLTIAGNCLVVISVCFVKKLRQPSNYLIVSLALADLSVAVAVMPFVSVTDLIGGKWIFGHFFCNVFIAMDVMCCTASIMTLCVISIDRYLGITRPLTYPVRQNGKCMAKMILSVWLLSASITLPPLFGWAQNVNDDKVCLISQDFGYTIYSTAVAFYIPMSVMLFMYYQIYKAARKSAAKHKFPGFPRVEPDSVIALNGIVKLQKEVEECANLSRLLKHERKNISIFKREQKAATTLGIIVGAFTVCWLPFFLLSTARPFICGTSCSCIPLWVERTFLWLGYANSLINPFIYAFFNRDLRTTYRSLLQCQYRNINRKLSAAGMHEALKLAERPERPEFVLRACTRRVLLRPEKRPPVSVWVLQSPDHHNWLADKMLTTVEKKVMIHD
Chain of human recombinant dopamine D2L receptor (P14416 whole entry): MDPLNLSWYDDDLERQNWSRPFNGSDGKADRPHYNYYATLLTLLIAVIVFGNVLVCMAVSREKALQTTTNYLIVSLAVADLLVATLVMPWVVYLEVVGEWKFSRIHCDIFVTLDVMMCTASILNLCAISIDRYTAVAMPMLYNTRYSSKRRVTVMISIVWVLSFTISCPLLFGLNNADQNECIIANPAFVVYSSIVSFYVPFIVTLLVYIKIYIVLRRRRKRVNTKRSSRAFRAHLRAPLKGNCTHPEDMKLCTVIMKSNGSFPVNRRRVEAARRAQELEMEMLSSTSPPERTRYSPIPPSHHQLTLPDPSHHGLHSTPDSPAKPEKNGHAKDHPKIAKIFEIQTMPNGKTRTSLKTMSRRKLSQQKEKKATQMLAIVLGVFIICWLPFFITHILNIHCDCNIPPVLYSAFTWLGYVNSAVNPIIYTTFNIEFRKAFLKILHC
T2 sequence (P28223 whole entry): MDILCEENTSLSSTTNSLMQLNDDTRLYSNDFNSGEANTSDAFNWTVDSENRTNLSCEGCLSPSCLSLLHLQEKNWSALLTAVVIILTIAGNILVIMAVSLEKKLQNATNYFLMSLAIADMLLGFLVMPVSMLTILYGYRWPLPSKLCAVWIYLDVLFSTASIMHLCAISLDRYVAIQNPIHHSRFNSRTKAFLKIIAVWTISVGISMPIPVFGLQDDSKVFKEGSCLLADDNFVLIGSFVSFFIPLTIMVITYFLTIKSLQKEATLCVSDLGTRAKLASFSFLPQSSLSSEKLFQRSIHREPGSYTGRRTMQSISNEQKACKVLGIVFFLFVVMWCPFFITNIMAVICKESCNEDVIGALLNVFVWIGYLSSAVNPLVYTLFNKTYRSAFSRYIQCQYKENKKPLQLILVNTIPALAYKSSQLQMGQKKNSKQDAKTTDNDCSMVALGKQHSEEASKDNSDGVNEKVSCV

`Cc1ccc2c(c1)c1c(n2CCc2ccc(C)nc2)CCN(CCCCO)C1` [Compound 1-43, 4-(8-methyl-5-(2-(6-methylpyridin-3-yl)ethyl)-3,4-dihydro-1H-pyrido[4,3-b]indol-2(5H)-yl)butan-1-ol] was tested, and the inhibition at 1 µM [1] was 97%, the inhibition at 1 µM [2] was 21% and the inhibition at 1 µM [3] was 10%. The inhibition at 1 µM [4] was 47%, the inhibition at 1 µM [5] was 49% and the inhibition at 1 µM [6] was 22%. It also gave an inhibition at 1 µM [7] of 66%.
